In BindingDB's records for doi:10.1021/jm00129a011 (Csiro Division of Chemicals and Polymers, 1989):

Target: Alpha-mannosidase (Canavalia ensiformis)
Test: Inhibitory activity against Mannosidase in jack bean (Canavalia ensiformis)

`OC[C@@H](O)[C@H]1NC[C@@H](O)[C@H]1O` was tested. Which IC50 did it give?
The IC50 was 500 nM.

For `C[C@@H](O)[C@H]1NC[C@@H](O)[C@H]1O`, which IC50 is on record?
Its IC50 is 600 nM.
